Assay [1] addresses T1, RXRα (Homo sapiens, UniProt P19793).
T1 construct: expressed in transfected cells
T1 sequence (P19793 1-462): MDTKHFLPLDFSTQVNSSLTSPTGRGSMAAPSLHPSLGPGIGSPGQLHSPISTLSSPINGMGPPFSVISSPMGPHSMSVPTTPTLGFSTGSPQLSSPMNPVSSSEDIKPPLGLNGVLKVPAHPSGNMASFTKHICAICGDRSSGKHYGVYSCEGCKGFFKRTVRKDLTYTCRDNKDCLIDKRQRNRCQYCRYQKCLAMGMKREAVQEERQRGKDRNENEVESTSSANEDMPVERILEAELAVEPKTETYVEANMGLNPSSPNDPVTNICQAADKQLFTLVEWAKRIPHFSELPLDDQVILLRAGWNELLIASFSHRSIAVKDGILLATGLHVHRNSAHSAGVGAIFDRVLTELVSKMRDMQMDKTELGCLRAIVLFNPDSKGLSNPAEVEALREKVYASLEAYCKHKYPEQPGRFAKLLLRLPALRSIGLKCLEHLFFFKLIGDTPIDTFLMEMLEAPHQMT
Kind of assay: ligand binding assay, RXRα. As to conditions: for Ki: read-out: RXR Bind Ki α; for Kd: Table 9 (Formula F), read-out: RXR α Kd. The source says:
(§1) Specifically, one such assay is a chimeric receptor transactivation assay which tests for agonist-like activity in the R RAPE and RAR7 receptor subtypes, and which is based on work published by Feigner, P. L. and Holm, M (1989) Focus, 112 is described in detail in U.S. Pat. No. 5,455,265. The specification of U.S. Pat. No. 5,455,265 is hereby expressly incorporated by reference. A holoreceptor transactivation assay and a ligand binding assay which measure the antagonist/agonist like activity of the compounds of the invention, or their ability to bind to the several retinoid receptor subtypes, respectively, are described in published PCT Application No. WO WO93/11755 (particularly on pages 30-33 and 37-41) published on Jun. 24, 1993, the specification of which is also incorporated herein by reference. A detailed experimental procedure for holoreceptor transactivations has been described by Heyman et al. Cell 68, 397-406, (1992); Allegretto et al. J. Biol. Chem. 268, 26625-26633, and Mangelsdorf et al. The Retinoids: Biology, Chemistry and Medicine, pp 319-349, Raven Press Ltd., New York, which are expressly incorporated herein by reference. The results obtained in this assay are expressed in EC50 numbers, as they are also in the chimeric receptor transactivation assay. The results of the ligand binding assay are expressed in Ki numbers. (See Cheng et al. Biochemical Pharmacology Vol. 22 pp 3099-3108, expressly incorporated herein by reference.)
(§2) Generally speaking, in the tables disclosing the results of transactivation and binding assays the numbers in parentheses indicate efficacy as a percentage compared to the standard compound, (2E,4E,1′S,2′S)-3-methyl-5-[2′-methyl-2′-(5,5,8,8-tetramethyl-5,6,7,8-tetrahydro-naphthalen-2-yl)cyclopropyl]-penta-2,4-dienoic acid and the other numbers indicate the measured EC50 and K; in nanomolar concentration.

The next assay has as its target T2, RARα (Homo sapiens, UniProt P10276).
T2 sequence (P10276 1-462): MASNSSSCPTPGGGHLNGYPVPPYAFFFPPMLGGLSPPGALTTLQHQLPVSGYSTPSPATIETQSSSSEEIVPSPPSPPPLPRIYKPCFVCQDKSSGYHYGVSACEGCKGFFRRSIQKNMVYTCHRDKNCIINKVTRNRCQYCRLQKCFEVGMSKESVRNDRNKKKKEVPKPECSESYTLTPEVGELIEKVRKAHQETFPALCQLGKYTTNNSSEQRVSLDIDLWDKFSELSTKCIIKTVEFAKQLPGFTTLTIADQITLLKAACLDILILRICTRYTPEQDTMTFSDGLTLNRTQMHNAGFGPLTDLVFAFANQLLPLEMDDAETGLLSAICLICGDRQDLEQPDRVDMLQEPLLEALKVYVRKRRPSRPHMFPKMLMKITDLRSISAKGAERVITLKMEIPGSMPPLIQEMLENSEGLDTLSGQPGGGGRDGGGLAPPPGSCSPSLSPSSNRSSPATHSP
Nature of the assay: ligand binding assay, RARα. As to conditions: for Ki: read-out: RAR Bind. Ki α; for Kd: Table 9 (Formula F), read-out: RAR α Kd.
Text: as §1, §2

The target of assay [2] is T1, RXRα. Kind of assay: holoreceptor transactivation assay, RXRα. Type of assay: cell-based. As to conditions: for EC50: holoreceptor transactivation, read-out: RXR Trans. EC50 α; for Emax: percentage compared to the standard compound, read-out: RXR Trans. efficacy (number in parentheses) α.
Text: as §1
(§3) Efficacy in a transactivation assay is expressed as a percentage of the maximum potency attained by the compound compared to a standard which, in this case, is the compound named (2E,4E,1′S,2′S)-3-methyl-5-[2′-methyl-2′-(5,5,8,8-tetramethyl-5,6,7,8-tetrahydro-naphthalen-2-yl)-cyclopropyl]-penta-2,4-dienoic acid. This standard compound is described in U.S. Pat. No. 6,114,533.
(§4) The specification of this application for patent is organized in several sections in accordance with structural Formulas A through F each of which discloses a group of preferred compounds within the scope of the invention. Tables that disclose the activity of certain exemplary compounds of the invention in the above-described RXR receptor transactivation and binding assays are found in the corresponding sections. […] The transactivation data pertaining to the activation of RXR receptors were obtained in the holoreceptor assay.
as §2

Another assay deals with T3, RXRγ (UniProt P28705).
T3 sequence (P28705 1-463): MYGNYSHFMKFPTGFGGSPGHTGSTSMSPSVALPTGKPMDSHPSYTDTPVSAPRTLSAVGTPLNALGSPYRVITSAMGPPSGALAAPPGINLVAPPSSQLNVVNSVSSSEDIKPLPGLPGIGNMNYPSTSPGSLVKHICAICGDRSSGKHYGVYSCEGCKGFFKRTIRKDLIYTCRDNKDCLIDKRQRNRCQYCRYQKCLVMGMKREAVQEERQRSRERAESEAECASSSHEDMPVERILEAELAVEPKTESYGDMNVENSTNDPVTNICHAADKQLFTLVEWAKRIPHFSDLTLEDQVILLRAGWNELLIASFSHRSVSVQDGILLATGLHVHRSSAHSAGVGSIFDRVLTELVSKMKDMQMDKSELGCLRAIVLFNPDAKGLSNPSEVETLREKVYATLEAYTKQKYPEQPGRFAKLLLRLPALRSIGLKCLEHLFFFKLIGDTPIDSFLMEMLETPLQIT
Kind of assay: holoreceptor transactivation assay, RXRγ. As to conditions: for EC50: holoreceptor transactivation, read-out: RXR Trans. EC50 γ; for RXR Trans. efficacy (number in parentheses) γ: percentage compared to the standard compound. Type of assay: cell-based.
Text: as §1, §3, §4, §2

Each structure is given as a SMILES string.

By Ki is commonly meant the dissociation constant of the complex between target and ligand, obtained from inhibition or displacement. In general, EC50 refers to the concentration needed to bring the measured effect to its halfway point. As a reminder, the Kd is the constant that tells how readily two partners part at equilibrium.

For `CCCOc1cc2c(cc1\C(C)=C(F)/C=C/C(C)=C/C(=O)O)C(C(C)(C)C)=CCC2(C)C` [Compound A-84, (2E,4E,6E)-6-Fluoro-3-(4,$dimethyl-6-n-propoxy-1-tert-butyl-3,4-dihydronaphthalen-7-yl)-3-methyl-2,4,6-octatrienoic acid], the Ki at RXRα [1] was 13 nM; on RARα, 1100 nM.
On to `CCC1=CC(C)(C)Oc2cc(OC)c(\C(C)=C/C=C/C(C)=C/C(=O)O)cc21` [Compound 42, 7-(4-Ethyl-7-methoxy-2,2-dimethyl-2H-chromen-6-yl)-3-methyl-octa-2E,4E,6Z-trienoic acid], for which, at RXRα [1], the Ki was found to be 49 nM. On RXRα [2], the EC50 is 6 nM and the Emax amounted to 99%. For the same compound, at RARα, the Ki stood at 8900 nM. Also, at RXRγ, the EC50 is 13 nM and the “RXR Trans. efficacy (number in parentheses) γ” value (from here on “RXR Trans. efficacy”) is recorded as 125%.
As to `CCOc1c(\C(CC)=C(F)/C=C/C(C)=C/C(=O)O)cc2c(c1Cl)OC(C)(C)C=C2C(C)C` [Compound 173], the figures for the Ki on RXRα [1] and on RARα were 2 nM and 102 nM, respectively. Besides, the 50% effective concentration (EC50) at RXRα [2] was determined as 4.8 nM; on RXRγ, 6 nM. The Emax on RXRα [2] stood at 18%. Further, the “RXR Trans. efficacy” value at RXRγ was determined as 10%.
As for `CCOc1c(\C(C)=C(F)/C=C/C(C)=C/C(=O)O)cc2c(c1Br)C(C)(C)CC=C2C(C)C` [Compound A-169, (2E,4E,6E)-7-(4-Bromo-3-ethoxy-8-isopropyl-5,5-dimethyl-5,6-dihydro-naphthalen-2-yl)-6-fluoro-3-methyl-octa-2.4,6-trienoic acid], the Kd at RXRα [1] was 3 nM. Also, at RXRα [2], the EC50 was determined as 0.4 nM and the Emax came to 66%. Further, the Kd on RARα amounted to 70 nM. Also, at RXRγ, the EC50 worked out at 0.6 nM and the “RXR Trans. efficacy” value came to 71%.
On to `CCOc1c(\C(C)=C(F)/C=C/C(C)=C/C(=O)O)cc2c(c1Cl)C(C)(C)CC=C2C(C)C` [Compound A-177, (2E,4E,6E)-7-(4-Chloro-3-ethoxy-8-isopropyl-5,5-dimethyl-5,6-dihydronaphthalen-2-yl)6-fluoro-3-methyl-octa-2,4,6-trienoic acid], for which the Kd at RXRα [1] worked out at 2 nM; on RARα, 60 nM. The EC50 at RXRα [2] amounted to 0.1 nM; on RXRγ, 0.2 nM. Further, on RXRα [2], the Emax stood at 72%. The “RXR Trans. efficacy” value on RXRγ stood at 73%.
Turning to `CCOc1c(\C(=C/C=C/C(C)=C/C(=O)O)CC)cc2c(c1Cl)OC(C)(C)C=C2C(C)C` [Compound 51], the Ki at RXRα [1] turned out to be 13 nM. Further, at RXRα [2], the EC50 was determined as 9 nM and the Emax came to 25%. Further, at RARα, the inhibitory constant (Ki) turned out to be 422 nM. On RXRγ, the EC50 was found to be 22 nM and the “RXR Trans. efficacy” value was found to be 13%.
As for `CC(/C=C/C(F)=C(/C)c1cc2c(cc1OCC1CC1)C(C)(C)CC=C2C(C)C)=C\C(=O)O` [Compound A-81, (2E,4E,6E)-6-Fluoro-3-(4-dimethyl-6-(cyclopropyl)methoxy-1-isopropyl-3,4-dihydronaphthalen-7-yl)-3-methyl-2,4.6-octa-trienoic acid], the Ki at RXRα [1] stood at 12 nM; at RARα, 592 nM.
For `CCCOc1cc2c(cc1\C(C)=C(F)/C=C/C(C)=C/C(=O)O)C(C(C)C)=CCC2(C)C` [Compound A-80], the Ki amounted to 10 nM on RXRα [1] and 841 nM on RARα.
Turning to `CCOc1c(\C(CC)=C(F)/C=C/C(C)=C/C(=O)O)cc2c(c1Br)C(C)(C)CC=C2C(C)CC` (centres unmarked) [Compound A-176, (2E,4E,6E)-7-(4-Bromo-8-sec-butyl-3-ethoxy-5,5-methyl-5,6-dihydro-naphthalen-2-yl)-6-fluoro-3-methyl-nona-2,4,6-trienoic acid], at RXRα [2], the EC50 was determined as 0.9 nM and the Emax worked out at 58%. On RARα, the Kd was 32 nM. On RXRγ, the EC50 stood at 3 nM and the “RXR Trans. efficacy” value is 53%.

The record behind these values is patent US6887896B1, “7-[(7-Alkoxy)-chrom-3-en-6-yl]-heptatrienoic acid and 7-[(3-alkoxy)-5,6-dihydronaphthalen-2-yl]-heptatrienoic acid derivatives having serum glucose reducing activity” (Allergan, Inc., priority 2003, dated 2005).
